Experimental data reported in PubChem BioAssay (NCI).
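Growth conditions: 96-well plates. Treatment: test compound, 48 hours, 5 concentrations. Analysis: linear interpolation between bracketing concentrations; unreached endpoints set to highest concentration. GI50 = concentration required for 50% inhibition of growth. Definition used: TGI = concentration required for complete inhibition of growth.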

Key:
Experiment in all cases: NCI-60 cell line screen, 48 h
[1] = system: NCI/ADR-RES ovarian
[2] = system: SN12C renal
[3] = system: HT29 colon
[4] = system: UACC-62 melanoma
[5] = system: DU-145 prostate
[6] = system: MALME-3M melanoma
[7] = system: UO-31 renal
[8] = system: OVCAR-4 ovarian
[9] = system: HCC-2998 colon
[10] = system: SK-MEL-2 melanoma
[11] = system: MOLT-4 leukemia
[12] = system: HOP-62 NSCLC
[13] = system: KM12 colon
[14] = system: NCI-H226 lung
[15] = system: MDA-MB-435
[16] = system: 786-0 renal
[17] = system: T-47D breast
[18] = system: RPMI-8226 leukemia
[19] = system: SF-295 CNS
[20] = system: COLO 205 colon
[21] = system: SR leukemia
[22] = system: SF-539 CNS
[23] = system: BT-549 breast
[24] = system: OVCAR-5 ovarian
[25] = system: A549 NSCLC
[26] = system: HOP-92 NSCLC
[27] = system: PC-3 prostate
[28] = system: OVCAR-3 ovarian
[29] = system: CCRF-CEM leukemia
[30] = system: SF-268 CNS
[31] = system: UACC-257 melanoma
[32] = system: NCI-H522 lung
[33] = system: MCF7 breast
[34] = system: U251 CNS
[35] = system: TK-10 renal
[36] = system: IGROV1 ovarian
[37] = system: MDA-MB-231 breast
[38] = system: NCI-H23 lung
[39] = system: HS 578T breast
[40] = system: NCI-H460 lung
[41] = system: LOX IMVI melanoma
[42] = system: HL-60(TB) leukemia
[43] = system: EKVX NSCLC
[44] = system: HCT-116 colon
[45] = system: SW-620 colon
[46] = system: SK-OV-3 ovarian
[47] = system: A498 renal
[48] = system: ACHN renal
[49] = system: RXF 393 renal
[50] = system: OVCAR-8 ovarian
[51] = system: SK-MEL-28 melanoma
[52] = system: HCT-15 colon
[53] = system: SNB-75 CNS
[54] = system: SK-MEL-5 melanoma
[55] = system: CAKI-1 renal
[56] = system: SNB-19 CNS

## Cc1ccc(NC(=O)Cc2ccc(/C=C/C(=O)c3ncc[nH]3)cc2)cc1
[1]
  GI50: 6.73 µM
  TGI: > 25 µM
[2]
  GI50: 5.91 µM
  TGI: > 25 µM
[3]
  GI50: 0.955 µM
  TGI: 5.09 µM
[4]
  GI50: 8.29 µM
  TGI: > 25 µM
[5]
  GI50: 4.56 µM
  TGI: > 25 µM
[6]
  GI50: > 25 µM
  TGI: > 25 µM
[7]
  GI50: 3.01 µM
  TGI: 14.2 µM
[8]
  GI50: 10.4 µM
  TGI: > 25 µM
[9]
  GI50: 6.73 µM
  TGI: > 25 µM
[10]
  GI50: 18.1 µM
  TGI: > 25 µM
[11]
  GI50: 5.33 µM
  TGI: > 25 µM
[12]
  GI50: 5.24 µM
  TGI: 21.6 µM
[13]
  GI50: 3.09 µM
  TGI: 12.7 µM
[14]
  GI50: 9.59 µM
  TGI: > 25 µM
[15]
  GI50: 5.68 µM
  TGI: > 25 µM
[16]
  GI50: 4.28 µM
  TGI: > 25 µM
[17]
  GI50: 6.47 µM
  TGI: > 25 µM
[18]
  GI50: 1.79 µM
  TGI: 11.8 µM
[19]
  GI50: 7.9 µM
  TGI: > 25 µM
[20]
  GI50: 7.27 µM
  TGI: > 25 µM
[21]
  GI50: 0.992 µM
  TGI: > 25 µM
[22]
  GI50: 4.77 µM
  TGI: 14 µM
[23]
  GI50: 6.42 µM
  TGI: > 25 µM
[24]
  GI50: 6.84 µM
  TGI: > 25 µM
[25]
  GI50: 9.14 µM
  TGI: > 25 µM
[26]
  GI50: 18.5 µM
  TGI: > 25 µM
[27]
  GI50: 7.1 µM
  TGI: > 25 µM
[28]
  GI50: 1.67 µM
  TGI: > 25 µM
[29]
  GI50: 4.67 µM
  TGI: > 25 µM
[30]
  GI50: 5.32 µM
  TGI: > 25 µM
[31]
  GI50: > 25 µM
  TGI: > 25 µM
[32]
  GI50: 4.54 µM
  TGI: 20.5 µM
[33]
  GI50: 1.15 µM
  TGI: > 25 µM
[34]
  GI50: 1.59 µM
  TGI: > 25 µM
[35]
  GI50: 7.93 µM
  TGI: > 25 µM
[36]
  GI50: 6.47 µM
  TGI: > 25 µM
[37]
  GI50: 9.46 µM
  TGI: > 25 µM
[38]
  GI50: 5.85 µM
  TGI: > 25 µM
[39]
  GI50: 13.6 µM
  TGI: > 25 µM
[40]
  GI50: 6.32 µM
  TGI: > 25 µM
[41]
  GI50: 1.29 µM
  TGI: 6.76 µM
[42]
  GI50: 5.88 µM
  TGI: > 25 µM
[43]
  GI50: 13.5 µM
  TGI: > 25 µM
[44]
  GI50: 3.28 µM
  TGI: 9.59 µM
[45]
  GI50: 5.22 µM
  TGI: > 25 µM
[46]
  GI50: 12.8 µM
  TGI: > 25 µM
[47]
  GI50: 19.9 µM
  TGI: > 25 µM
[48]
  GI50: 6.51 µM
  TGI: 21.4 µM
[49]
  GI50: 7.68 µM
  TGI: > 25 µM
[50]
  GI50: 7.24 µM
  TGI: > 25 µM
[51]
  GI50: 11.5 µM
  TGI: > 25 µM
[52]
  GI50: 2.01 µM
  TGI: 15.6 µM
[53]
  GI50: 7 µM
  TGI: > 25 µM
[54]
  GI50: 18.3 µM
  TGI: > 25 µM
[55]
  GI50: 9.62 µM
  TGI: > 25 µM
[56]
  GI50: 6.65 µM
  TGI: > 25 µM
